Assay results reported in patent publication US20240393292A1, “ALLERGY ANTIGEN AND EPITOPE THEREOF” (HOYU CO., LTD., priority 2019, published 2024).
Entries after “also recorded” stand apart in the source; their conditions may differ.

What was measured:
Type in all cases: binding, human
[1] = system: IgE antibodies from patients having allergies to each food; experiment: Confirmation of epitope cross-reactivity by ELISA with biotinylated peptides
Excerpt: Amino acids other than amino acids important for maintaining binding to IgE antibodies, in each of the epitope sequences found in the wheat proteins in Table 2 were defined as any given amino acid (X). NCBI was searched for proteins having the key sequences having the amino acid residues X in cooking ingredient allergens carried in common by each of the patients. As a result, an amino acid sequence contained in a sequence in each food described in the column “Food with which cross-reactivity was confirmed” in Table 2 was identified as one example.
The binding activity of peptides comprising the amino acid sequences described in the column “Synthesis sequence” and the rightmost column “SEQ ID NO” of Table 2 against IgE antibodies from patients having allergies to each food described in the column “Food with which cross-reactivity was confirmed” in Table 2 was confirmed by ELISA. The peptides were synthesized such that the peptides were N-terminally biotinylated by the Fmoc method.
To be specific, ELISA was carried out according to the following procedure. • (1) The concentrations of the biotinylated peptides were adjusted to 10 μg/mL with PBST (0.1% Tween 20). • (2) Each peptide solution was added at 20 μL to each well of a 384-well plate coated with streptavidin, and shaken at room temperature for one hour. After collection of the solution, the wells were washed with PBST five times. • (3) Pierce Protein-Free (PBS) Blocking Buffer (produced by Thermo) was added at 40 μL thereto and shaken at room temperature for one hour. After removal of the solution, the wells were washed with PBST five times. • (4) 2% serum/Canget SignalSolution I (produced by TOYOBO) was added at 20 μL thereto and shaken at room temperature for one hour. After removal of the solution, the wells were washed with PBST five times. • (5) A diluted secondary antibody solution (1:10000, Canget SignalSolution II (produced by TOYOBO)) was added at 20 μL thereto and shaken at room temperature for one hour. After removal of the solution, the wells were washed with PBST five times. • (6) 1-Step Ultra TMB-ELISA (produced by Thermo) was added at 20 μL thereto and shaken at room temperature for 15 minutes. • (7) 2 M H2SO4 was added at 20 μL thereto. Absorbance at 450 nm was measured.
Peptides having these amino acid sequences were prepared by the same procedure as described in Example 4 (A), and the presence or absence of binding thereto of IgE antibodies present in the serum of an allergic patient and the serum of a nonallergic subject was measured. The serum of two nonallergic subjects was measured, and values obtained by dividing the measurement values by an average value thereof were used.
The bar graph of each figure depicts “absorbance of the allergic patient/absorbance of the nonallergic patient (healthy subject)”. The names of the cooking ingredients described in each graph are the names of cooking ingredients containing a polypeptide comprising an amino acid sequence serving as the basis of each synthetic sequence used.

[2] = system: IgE antibodies from patients; experiment: Wheat epitope mapping (3): alanine/glycine scanning; conditions: from analysis of epitope mapping (A) to (C); many samples
Procedure: From the amino acid sequences identified above in (A), a library of peptide fragments in which amino-terminal amino acids were substituted one by one by alanine (or glycine when the original amino acid was alanine) according to a technique called alanine/glycine scanning (Non Patent Literature 5) was prepared by the same technique as described above. The presence or absence of binding of an IgE antibody present in the serum of a patient to each peptide fragment was measured by the same technique as described above.
Chemiluminescence intensity in images obtained by measurement was converted into a numeric value in the same manner as in (A). Numeric values determined from images obtained from secondary antibody measurement values were used as control values. The control value of each peptide was subtracted from numeric values determined from images obtained from results about the serum of 49 patients. When values obtained using the sequences (SEQ ID NOs: 29, 131, 191, 281, 346, 414, 493, 562, 640, 706, 776, 899, 974, 1010, 1089, 1142, 1166, 1209, 1257, 1297, 1367, 1403, 1508, 1566, 1598, 1608, 1685, 1753, 1789, 1836, 1895, 1977, 2004, 2027, 2068, 2154, 2217, 2265, 2309, 2342, 2419, 2491, 2545, 2613, 2631, 2674, 2701, 2774, 2809 and 2830) serving as the basis of alanine/glycine scanning were defined as 100%, it was determined that: a peptide having a value of the difference that was less than 30% had no binding activity against IgE antibodies; a peptide having a value of the difference that was 30% or more and less than 50% had binding activity, albeit poor, against IgE antibodies; a peptide having a value of the difference that was 50% or more and less than 70% had binding activity, albeit somewhat poor, against IgE antibodies; and a peptide having a value of the difference that was 70% or more had equivalent or good binding activity against IgE antibodies and was thus a peptide had remaining binding activity against IgE antibodies.
By analysis of the results of (A) to (C), common sequences important for exertion of original antigenicity were found in regions important for binding to IgE antibodies from patients, in the sequences serving as the basis of alanine/glycine scanning.

[3] = system: IgE antibody present in the serum of a wheat-allergic patient; experiment: Wheat epitope mapping (1): peptide array of overlapping 15-amino-acid peptides, chemiluminescence; conditions: bound = chemiluminescence value minus N2nd value of 5 non-wheat-allergic subjects at least 35,000; serum of 49 patients
[4] = synthetic sequence, Graph No. 3, epitope of patient P8

GLFGTN (GIFGTN)
Food in which cross-reactivity was confirmed ([1]; synthetic sequence tested for IgE binding by ELISA, Graph No. 3, epitope row of patient P8): Wheat/barley/rye 3

SEQ ID NO: 222: polypeptide consisting of 4 amino acid residues, among sequences of (E3) (QQPF; REGION 1..4: note = epitope)
short polypeptide confirmed as epitope binding to IgE antibodies [2]: confirmed as epitopes binding to IgE antibodies in many samples

NEPSQLSLDQNAQGL
Food in which cross-reactivity was confirmed ([1]; epitope E16 (Fructose-bisphosphate aldolase W5CCA9, Spot No. 4), patient P21, key sequence XXXXQXXXDQNXXXX (SEQ ID NO 1144), Graph No. 2): timothy

SEQ ID NO: 345: polypeptide consisting of 4 amino acid residues, among sequences of (E4) (QPFP; REGION 1..4: note = epitope)
short polypeptide confirmed as epitope binding to IgE antibodies [2]: confirmed as epitopes binding to IgE antibodies in many samples

2923 (KRVIERFEK; REGION 1..9: note = epitope) [compound 2923]
Food in which cross-reactivity was confirmed [1, 4]: Wheat/barley

QPIQ (REGION 1..4: note = epitope) [SEQ ID NO: 30]
short polypeptide confirmed as epitope binding to IgE antibodies [2]: confirmed as epitopes binding to IgE antibodies in many samples

2910 (SLAEYTVRTLQRTVP; REGION 1..15: note = epitope) [compound 2910]
Food in which cross-reactivity was confirmed ([1]; Graph No. 2, synthetic sequence listed under patient P16): Wheat/rye/barley/; also recorded: timothy

2922 (GIDKRV; REGION 1..6: note = epitope) [compound 2922]
Food in which cross-reactivity was confirmed [1, 4]: Wheat/barley

SEQ ID NO: 238: polypeptide consisting of 4 amino acid residues, among sequences of (E3) (PFPQ; REGION 1..4: note = epitope)
short polypeptide confirmed as epitope binding to IgE antibodies [2]: confirmed as epitopes binding to IgE antibodies in many samples

2889 (ILFEETLYQS; REGION 1..10: note = epitope) [compound 2889]
Food in which cross-reactivity was confirmed ([1]; epitope E10 (Fructose-bisphosphate aldolase W5CCA9), listed under patient P8, Graph No. 3): Wheat/rye/barley

SEQ ID NO: 61: polypeptide consisting of 4 amino acid residues, among sequences of (E1) (QPIQ; REGION 1..4: note = epitope)
short polypeptide confirmed as epitope binding to IgE antibodies [2]: confirmed as epitopes binding to IgE antibodies in many samples

29 (QQILWYHQQQPIQQQ; REGION 1..15: note = epitope) [compound 29]
Food in which cross-reactivity was confirmed ([1]; serum IgE of patient P7 (WDEIA), epitope E1, LMW-D8(LMW-GS) B2BZD1, Spot No. 9, key sequence XXXXXXXQXXXIQQX (SEQ ID NO 45), Graph No. 1): Wheat | Food in which cross-reactivity was confirmed ([1]; serum IgE of patient P13 (WDEIA), epitope E1, LMW-D8(LMW-GS) B2BZD1, Spot No. 9, key sequence XXXXXYXQXXXIQQX (SEQ ID NO 62), Graph No. 1): Wheat | Food in which cross-reactivity was confirmed ([1]; serum IgE of patient P36 (WDEIA), epitope E1, LMW-D8(LMW-GS) B2BZD1, Spot No. 9, key sequence XXXXXXXQXXXIQQX (SEQ ID NO 122), Graph No. 1): Wheat

2881 (QEQQQYYPQQQAFFL; REGION 1..15: note = epitope) [compound 2881]
Food in which cross-reactivity was confirmed ([1]; serum IgE of patient P4 (WDEIA), epitope E3, LMW-D8(LMW-GS) B2BZD1, Spot No. 9, key sequence XXXQQXXPQQXXXXX (SEQ ID NO 203), Graph No. 1): Orchard grass | Food in which cross-reactivity was confirmed ([1]; serum IgE of patient P10 (WDEIA), epitope E3, LMW-D8(LMW-GS) B2BZD1, Spot No. 9, key sequence XXXQQXXPQQQXXXX (SEQ ID NO 220), Graph No. 1): Orchard grass | Food in which cross-reactivity was confirmed ([1]; serum IgE of patient P32 (WDEIA), epitope E3, LMW-D8(LMW-GS) B2BZD1, Spot No. 9, preferred sequence XXQQQXFPQQQXXXX (SEQ ID NO 268), Graph No. 1): Orchard grass

SEQ ID NO: 58: polypeptide consisting of 4 amino acid residues, among sequences of (E1) (PIQQ; REGION 1..4: note = epitope)
short polypeptide confirmed as epitope binding to IgE antibodies [2]: confirmed as epitopes binding to IgE antibodies in many samples

SEQ ID NO: 2419: common 15-residue epitope sequence of polypeptide (E41) (QSTLKAWSGKTENEE; REGION 1..15: note = epitope)
binding of patient-specific IgE antibodies to 15-residue peptide [3]: confirmed to bind
